Experimental findings from ChEMBL document CHEMBL1201862, “PubChem BioAssay data set” (2004) are described below.

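96-well plates; 48 h exposure; 5 concentrations. Endpoints by linear interpolation between flanking doses. Not reached: highest tested concentration assigned. The concentration for 50% growth inhibition is given as GI50.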 The source made the active and inactive calls. Rule as the data show it: active = GI50 up to about 1.1 µM and inactive = higher. Where only a bound is given, the exact number is not on record here.

Some test systems named below: A549; ACHN; CAKI-1; COLO 205; DMS-114; DMS-273; HCC 2998; HOP-62; HOP-92; HT-29; MOLT-4; NCI-H226; NCI-H460; SF-539; SN12C; SW-620.
What all share (assay): NCI-60 cell line screen, 48 h

For the compound `CCCCCCCCCC1CC(=O)OC2=C1C(=O)CCC2` (stereo not drawn), the GI50 in the assay on A549, with ACHN, in the assay on CAKI-1, in the assay with COLO 205, with DMS-114 and in the assay with DMS-273 was > 100 µM (inactive) in each case. The GI50 in the assay with HCC 2998, in the assay with HOP-62, in the assay with HOP-92, with HT-29, in the assay with MOLT-4 and with NCI-H226 was > 100 µM (inactive) throughout. Besides, the GI50 in the assay with NCI-H460, with SF-539, in the assay with SN12C and in the assay with SW-620 was > 100 µM (inactive) each time.

`CC(C)OP(=O)(OC(C)C)/C(N)=N/Nc1ccc([N+](=O)[O-])cc1`: the GI50 is 76.2 µM (inactive) in the assay with A549; 69.8 µM (inactive) in the assay on ACHN; > 100 µM (inactive) with CAKI-1; > 100 µM (inactive) in the assay on COLO 205; 57.8 µM (inactive) in the assay with DMS-114; > 100 µM (inactive) with DMS-273. For the same compound, the GI50 in the assay with HCC 2998 is > 100 µM (inactive); with HOP-62 it was > 100 µM (inactive); in the assay on HOP-92 it was 46.7 µM (inactive); in the assay on MOLT-4 it was 52.1 µM (inactive); in the assay with NCI-H226 it was 53 µM (inactive); in the assay with NCI-H460 it was 41.7 µM (inactive). For the same compound, the GI50 in the assay with SF-539, with SN12C and with SW-620 was > 100 µM (inactive) throughout.

In the case of `O=[N+]([O-])c1cccc(C(O)/C(=N/Nc2ccccc2)C2Nc3ccc([N+](=O)[O-])cc3N=C2O)c1` (stereo not drawn), the GI50 was 41.2 µM (inactive) in the assay with A549; 24.5 µM (inactive) in the assay on ACHN; 61.1 µM (inactive) in the assay on COLO 205; 24.9 µM (inactive) in the assay on DMS-114; 36.8 µM (inactive) with DMS-273; 33.4 µM (inactive) in the assay with HCC 2998. In addition, the GI50 was > 100 µM (inactive) with HOP-62; > 100 µM (inactive) with HOP-92; 50.9 µM (inactive) in the assay on HT-29; 27.2 µM (inactive) in the assay with MOLT-4; > 100 µM (inactive) in the assay on NCI-H226; 42.9 µM (inactive) in the assay on NCI-H460. In addition, the GI50 is 13.2 µM (inactive) with SF-539, > 100 µM (inactive) in the assay on SN12C and 49.3 µM (inactive) in the assay on SW-620.

On to `[N-]=[N+]=NC1C2CC3C4CC5CC3[C@H](C2)C(C5)C41` (stereo partly drawn), for which the GI50 with A549, in the assay on ACHN, with CAKI-1, in the assay with COLO 205, with DMS-114 and in the assay on DMS-273 was > 100 µM (inactive) each time. Further, the GI50 was > 100 µM (inactive) in the assay on HCC 2998; > 100 µM (inactive) in the assay on HOP-62; > 100 µM (inactive) with HOP-92; > 100 µM (inactive) with HT-29; > 100 µM (inactive) in the assay with MOLT-4; 75.3 µM (inactive) with NCI-H226. For the same compound, the GI50 with NCI-H460, in the assay on SF-539, with SN12C and with SW-620 was > 100 µM (inactive) throughout.

As to `c1ccc(C2N3CCCCC3[C@@H]3c4[nH]c5ccccc5c4CCN23)nc1` (stereo partly drawn), the GI50 in the assay with A549 is > 100 µM (inactive); in the assay with ACHN, > 100 µM (inactive); in the assay with CAKI-1, > 100 µM (inactive); with DMS-114 it was 27.4 µM (inactive); with DMS-273, > 100 µM (inactive); with HOP-62, > 100 µM (inactive). In addition, the GI50 in the assay on HOP-92, in the assay on HT-29, in the assay with MOLT-4, in the assay on NCI-H460, in the assay with SF-539 and with SN12C was > 100 µM (inactive) each time. In addition, the GI50 in the assay with SW-620 is > 100 µM (inactive).

Regarding `COc1ccc(-c2cn3ccsc3n2)cc1`, the GI50 with A549 was > 100 µM (inactive); in the assay on ACHN, > 100 µM (inactive); in the assay on CAKI-1 it was > 100 µM (inactive); in the assay with COLO 205 it was 33.1 µM (inactive); in the assay with DMS-114, 47.8 µM (inactive); in the assay on DMS-273, > 100 µM (inactive). For the same compound, the GI50 with HCC 2998 is > 100 µM (inactive); in the assay with HOP-62 it was > 100 µM (inactive); in the assay with HOP-92 it was > 100 µM (inactive); in the assay with HT-29 it was 82.8 µM (inactive); with MOLT-4 it was 97.7 µM (inactive); with NCI-H226, > 100 µM (inactive). In addition, the GI50 is 87.7 µM (inactive) with NCI-H460, 75.9 µM (inactive) in the assay with SF-539, > 100 µM (inactive) in the assay with SN12C and 11.2 µM (inactive) in the assay with SW-620.

Regarding `O=[N+]([O-])c1ccccc1C1N2CCCCC2[C@@H]2c3[nH]c4ccccc4c3CCN12` (stereo partly drawn), the GI50 in the assay on A549 is 9.84 µM (inactive); in the assay with ACHN it was 12.4 µM (inactive); in the assay with CAKI-1 it was 14 µM (inactive); in the assay on COLO 205, 13.2 µM (inactive); in the assay on DMS-114, 4.34 µM (inactive); in the assay with DMS-273 it was 10.9 µM (inactive). Further, the GI50 is 14.8 µM (inactive) in the assay with HOP-62; 15.1 µM (inactive) in the assay with HOP-92; 7.53 µM (inactive) in the assay with HT-29; 5.78 µM (inactive) with MOLT-4; 17.7 µM (inactive) with NCI-H460; 12.2 µM (inactive) with SF-539. The GI50 in the assay on SN12C was 13.6 µM (inactive); with SW-620, 11.4 µM (inactive).

With `FC(F)(F)P1C2C=CC(CC2)C1(F)F` (stereo not drawn), the GI50 with A549, with ACHN, in the assay with CAKI-1, in the assay with COLO 205, in the assay with DMS-114 and with DMS-273 was > 100 µM (inactive) each time. Moreover, the GI50 in the assay on HCC 2998, in the assay on HOP-62, in the assay with HT-29, in the assay on MOLT-4, in the assay on NCI-H226 and in the assay with NCI-H460 was > 100 µM (inactive) throughout. Further, the GI50 in the assay on SF-539 was > 100 µM (inactive); in the assay on SN12C, > 100 µM (inactive); in the assay with SW-620 it was 63.2 µM (inactive).

Take `O=[N+]([O-])c1ccc(C2=Nc3ccccc3[S+]([O-])C(c3ccccc3)C2)cc1` (stereo not drawn): the GI50 is 27.9 µM (inactive) in the assay with A549; 21.4 µM (inactive) in the assay on ACHN; 18.8 µM (inactive) in the assay with CAKI-1; 19.7 µM (inactive) in the assay with COLO 205; 19.1 µM (inactive) in the assay on DMS-114; 22.6 µM (inactive) with DMS-273. The GI50 was 18.6 µM (inactive) in the assay on HCC 2998; 26.7 µM (inactive) in the assay on HOP-62; 19.1 µM (inactive) in the assay with HT-29; 16.6 µM (inactive) in the assay on MOLT-4; 16.1 µM (inactive) in the assay on NCI-H226; 24.5 µM (inactive) with NCI-H460. For the same compound, the GI50 is 20.2 µM (inactive) in the assay on SF-539, 23.6 µM (inactive) in the assay on SN12C and 23.1 µM (inactive) with SW-620.

`Cc1nn(C)c(=O)c2nn(-c3ccccc3)c(C)c12`: the GI50 in the assay with A549, with ACHN, in the assay with CAKI-1, in the assay with COLO 205, in the assay with DMS-114 and with DMS-273 was > 100 µM (inactive) each time. The GI50 in the assay on HCC 2998, in the assay on HOP-62, in the assay with HT-29, in the assay with MOLT-4, with NCI-H226 and with NCI-H460 was > 100 µM (inactive) in each case. In addition, the GI50 in the assay with SF-539, with SN12C and in the assay on SW-620 was > 100 µM (inactive) throughout.

For `CCOC(=O)c1ccc(/C(C)=N/NC(N)=S)cc1`, the GI50 with A549, in the assay with ACHN, in the assay on COLO 205, with DMS-114, with DMS-273 and in the assay on HCC 2998 was > 100 µM (inactive) each time. For the same compound, the GI50 in the assay on HOP-62, with HOP-92, in the assay on MOLT-4, in the assay on NCI-H460, in the assay with SF-539 and in the assay with SN12C was > 100 µM (inactive) throughout. In the assay on SW-620, the GI50 was > 100 µM (inactive).

With `NC(=O)C#CC#CC#CCO`, the GI50 was 4.39 µM (inactive) in the assay on A549; 1.34 µM (inactive) with ACHN; 1.92 µM (inactive) with CAKI-1; 1.23 µM (inactive) in the assay on COLO 205; 2.05 µM (inactive) with DMS-114; 1.98 µM (inactive) in the assay with DMS-273. The GI50 in the assay with HCC 2998 is 1.7 µM (inactive); with HOP-62, 10.9 µM (inactive); in the assay on HOP-92, 2.28 µM (inactive); in the assay on HT-29 it was 2.39 µM (inactive); with MOLT-4 it was 0.998 µM (active); in the assay with NCI-H226, 11.6 µM (inactive). For the same compound, the GI50 was 5.96 µM (inactive) in the assay with NCI-H460, 1.96 µM (inactive) in the assay with SN12C and 1.51 µM (inactive) with SW-620.

For `CNc1ccc([N+](=O)[O-])c2c(NCCCN(C)C)ccnc12`, the GI50 with A549, in the assay with ACHN, in the assay with CAKI-1, with COLO 205, in the assay on DMS-114 and in the assay on DMS-273 was > 100 µM (inactive) each time. Further, the GI50 with HCC 2998, in the assay with HOP-62, in the assay with HT-29, in the assay with MOLT-4, in the assay on NCI-H226 and in the assay with NCI-H460 was > 100 µM (inactive) throughout. In addition, the GI50 in the assay with SF-539, in the assay on SN12C and in the assay on SW-620 was > 100 µM (inactive) throughout.
